# Columns and labels:
# [1] = biological target: T1, Human TRPML3 (Homo sapiens, UniProt Q8TDD5); test: Fluorescent TRPML3 assay (as for TRPML1); type: cell-based; conditions: fluorescent calcium assay as for TRPML1, TRPML3 subtype
# T1 construct: expressed in transfected cells
# T1 sequence (Q8TDD5 1-553): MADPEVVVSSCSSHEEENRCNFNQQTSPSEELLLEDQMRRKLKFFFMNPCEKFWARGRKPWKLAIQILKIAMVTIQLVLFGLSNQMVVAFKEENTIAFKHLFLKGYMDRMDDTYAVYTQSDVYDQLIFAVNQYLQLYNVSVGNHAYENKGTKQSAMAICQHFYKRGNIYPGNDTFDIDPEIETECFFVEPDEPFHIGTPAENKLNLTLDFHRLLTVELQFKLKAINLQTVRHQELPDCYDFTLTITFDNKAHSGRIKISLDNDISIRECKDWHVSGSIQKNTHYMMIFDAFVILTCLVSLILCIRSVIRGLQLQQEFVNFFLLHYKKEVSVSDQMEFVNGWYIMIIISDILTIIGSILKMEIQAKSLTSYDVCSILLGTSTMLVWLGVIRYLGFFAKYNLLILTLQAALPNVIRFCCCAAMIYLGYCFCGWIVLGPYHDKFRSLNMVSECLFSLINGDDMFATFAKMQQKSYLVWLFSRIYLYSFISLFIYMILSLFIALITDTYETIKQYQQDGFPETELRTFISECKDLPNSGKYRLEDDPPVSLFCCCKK
# Method: (§1) HEK-293 Trex cells were stably transfected with a construct consisting of the human coding sequence for TRPML1 cloned into the tet-inducible plasmid pCDNA5 T/O. Mutations were introduced into the TRPML1 sequence to facilitate expression on the cell surface (Silvia Vergarajauregui, Rosa Puertollano Traffic. 2006 March; 7(3): 337-353). Briefly, the cells are cultured in 150 mm round tissue culture dishes containing 20 mL of media. The day before the assay the cells are rinsed with DPBS-Ca-Mg and then treated briefly with Trypsin-EDTA. The Trypsin-EDTA is diluted with growth media, and cells are counted. 38×10^6 cells are re-plated into 150 mm round tissue culture dishes in media containing 0.5 μg/mL doxycycline to induce expression of hTRPML1.
# (§2) The day of the experiment cells are lifted from the plates as above and collected by centrifugation. The cells are then suspended in dye loading buffer consisting of Ringer's solution supplemented with 0.1% Pluronic Acid and 1 micromolar Fluo4-AM dye. Cells are loaded for ~60 minutes in the dark with occasional mixing. The cells are collected by centrifugation, the loading media aspirated, and the cells resuspended in 25 mL Ringer's solution and incubated ~60 minutes in the dark. The cells are again collected by centrifugation, rinsed in Ringer's Solution and resuspended to 0.2×10^6 cells/mL in modified Ringer's solution containing 10 mM calcium.
# (§3) Compounds are dissolved to a concentration of 10 millimolar with DMSO. Compound plates are created by dispensing compounds into 384 well black wall clear bottom plates (Greiner 781091). Positive and negative controls are included on each plate. Typically, different amounts of each compound are tested ranging from 100 nanoMoles (20 micromolar final concentration) decreasing in half-log steps to 31 picoMoles (6 nanomolar final concentration). Each concentration is typically tested in triplicate.
# (§4) 50 microliters of dye-loaded cells are dispensed into each well of the compound assay plate created above. The fluorescence in each well is then determined with an excitation wavelength of 480 nm and an emission wavelength of 540 nm using either a Molecular Devices SpectraMax multimode plate reader or a Hamamatsu FDSS/uCell plate imager.
# (§5) The resulting fluorescence for each well is exported as an ascii file and loaded into our LIMS for analysis. The percent activity of each compound at each concentration is determined by comparison to the positive and negative control wells included in each plate.
# Assays for TRPML2 and TRPML3 were performed as above for TRPML1, by substituting the appropriate TRPML2 or TRPML3 subtype for the TRPML1.
# (§6) EC50 values were calculated using a non-linear regression of Prism. In the table, “A” indicates an EC50 of less than 100 nM, “B” indicates an EC50 range from 100 nM to 500 nM: “C” indicates an EC50 range from 500 nM to 2 μM; and “D” indicates an EC50 greater than 2 μM.
# [2] = biological target: Human TRPML1 (Homo sapiens, UniProt Q9GZU1, L15A/L16A/L577A/L578A); test: Fluorescent TRPML1 assay (Fluo4-AM, HEK-293 Trex cells expressing hTRPML1); type: cell-based; conditions: fluorescent calcium assay, doxycycline-induced hTRPML1
# Chain of Human TRPML1 (Q9GZU1 whole entry L15A/L16A/L577A/L578A): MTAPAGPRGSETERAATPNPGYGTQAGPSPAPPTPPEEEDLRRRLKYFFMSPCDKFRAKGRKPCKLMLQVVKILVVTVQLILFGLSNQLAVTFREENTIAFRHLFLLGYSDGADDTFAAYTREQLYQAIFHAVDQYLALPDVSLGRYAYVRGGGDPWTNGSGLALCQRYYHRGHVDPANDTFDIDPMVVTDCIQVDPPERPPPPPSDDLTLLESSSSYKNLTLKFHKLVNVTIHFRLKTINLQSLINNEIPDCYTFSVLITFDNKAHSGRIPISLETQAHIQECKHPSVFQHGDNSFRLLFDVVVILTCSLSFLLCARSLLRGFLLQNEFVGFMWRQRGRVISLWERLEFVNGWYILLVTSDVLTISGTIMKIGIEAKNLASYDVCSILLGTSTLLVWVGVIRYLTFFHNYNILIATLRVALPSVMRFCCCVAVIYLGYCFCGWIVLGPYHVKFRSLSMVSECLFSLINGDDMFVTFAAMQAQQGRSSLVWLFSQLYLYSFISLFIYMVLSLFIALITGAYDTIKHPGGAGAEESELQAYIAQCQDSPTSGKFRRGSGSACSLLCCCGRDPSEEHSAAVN
# Method: Example 27. Fluorescent TRPML Assays
# as §1, §2, §3, §4, §5, §6
SMILES,EC50 [1],EC50 [2]
"C[C@@H]1CN(c2ncnc3c2c(N2CCC2)cn3-c2cc(C#N)ccn2)[C@@H](C)CN1C(=O)C(C)(C)O [Compound 107, 2-(5-(azetidin-1-yl)-4-((2S,5R)-4-(2-hydroxy-2-methylpropanoyl)-2,5-dimethylpiperazin-1-yl)-7H-pyrrolo[2,3-d]pyrimidin-7-yl)isonicotinonitrile]",> 2000 nM,100 to 500 nM
"CC(C)(O)C(=O)N1CCN(c2ncnc3c2c(-c2ccccc2F)cn3-c2cc(C#N)ccn2)CC1 [Compound 124, 2-(5-(2-fluorophenyl)-4-(4-(2-hydroxy-2-methylpropanoyl)piperazin-1-yl)-7H-pyrrolo[2,3-d]pyrimidin-7-yl)isonicotinonitrile]",,500 to 2000 nM
"C[C@@H]1CN(c2ncnc3c2c(C2CC2)cn3-c2cc(C#N)ccn2)[C@@H](C)CN1C(=O)CC(O)(C(F)(F)F)C(F)(F)F [Compound 162, 2-(5-cyclopropyl-4-((2S,5R)-2,5-dimethyl-4-(4,4,4-trifluoro-3-hydroxy-3-(trifluoromethyl)butanoyl)piperazin-1-yl)-7H-pyrrolo[2,3-d]pyrimidin-7-yl)isonicotinonitrile]",100 to 500 nM,
"C[C@@H]1CN(c2ncnc3c2c(-c2ccccc2)cn3-c2cc(C#N)ccn2)[C@@H](C)CN1C(=O)C1(O)CC1 [Compound 156, 2-(4-((2S,5R)-4-(1-hydroxycyclopropane-1-carbonyl)-2,5-dimethylpiperazin-1-yl)-5-phenyl-7H-pyrrolo[2,3-d]pyrimidin-7-yl)isonicotinonitrile]",> 2000 nM,500 to 2000 nM
"C[C@@H]1CN(c2ncnc3c2c(-c2ccncc2)cn3-c2cc(F)ccn2)[C@@H](C)CN1C(=O)C(C)(C)O [Compound 136, 1-((2R,5S)-4-(7-(4-fluoropyridin-2-yl)-5-(pyridin-4-yl)-7H-pyrrolo[2,3-d]pyrimidin-4-yl)-2,5-dimethylpiperazin-1-yl)-2-hydroxy-2-methylpropan-1-one]",> 2000 nM,500 to 2000 nM
"C[C@@H]1CN(c2ncnc3c2c(-c2ccncc2)cn3-c2cc(F)cc(F)c2)[C@@H](C)CN1C(=O)C(C)(C)O [Compound 138, 1-((2R,5S)-4-(7-(3,5-difluorophenyl)-5-(pyridin-4-yl)-7H-pyrrolo[2,3-d]pyrimidin-4-yl)-2,5-dimethylpiperazin-1-yl)-2-hydroxy-2-methylpropan-1-one]",,> 2000 nM
"C[C@@H]1CN(c2ncnc3c2c(-c2cncnc2)cn3-c2cc(C#N)ccn2)[C@@H](C)CN1C(=O)C(C)(C)O [Compound 116, 2-(4-((2S,5R)-4-(2-hydroxy-2-methylpropanoyl)-2,5-dimethylpiperazin-1-yl)-5-(pyrimidin-5-yl)-7H-pyrrolo[2,3-d]pyrimidin-7-yl)isonicotinonitrile]",> 2000 nM,> 2000 nM
"C[C@@H]1CN(c2ncnc3c2c(-c2cocn2)cn3-c2cc(C#N)ccn2)[C@@H](C)CN1C(=O)C(C)(C)O [Compound 126, 2-(4-((2S,5R)-4-(2-hydroxy-2-methylpropanoyl)-2,5-dimethylpiperazin-1-yl)-5-(oxazol-4-yl)-7H-pyrrolo[2,3-d]pyrimidin-7-yl)isonicotinonitrile]",> 2000 nM,500 to 2000 nM
"C[C@@H]1CN(c2nccc3c2c(-c2ccncc2)cn3-c2cc(F)ccn2)[C@@H](C)CN1C(=O)C(C)(C)O [Compound 141, 1-((2R,5S)-4-(1-(4-fluoropyridin-2-yl)-3-(pyridin-4-yl)-1H-pyrrolo[3,2-c]pyridin-4-yl)-2,5-dimethylpiperazin-1-yl)-2-hydroxy-2-methylpropan-1-one]",> 2000 nM,> 2000 nM
"C[C@@H]1CN(c2ncnc3c2c(C2CC2)cn3-c2cc(C#N)ccn2)[C@@H](C)CN1C(=O)C(C)(C)O [Compound 105, 2-(5-cyclopropyl-4-((2S,5R)-4-(2-hydroxy-2-methylpropanoyl)-2,5-dimethylpiperazin-1-yl)-7H-pyrrolo[2,3-d]pyrimidin-7-yl)isonicotinonitrile]",,500 to 2000 nM
"CC[C@H]1CN(C(=O)C(C)(C)O)CCN1c1ncnc2c1c(-c1ccccc1)cn2-c1cc(C#N)ccn1 [Compound 111, (S)-2-(4-(2-ethyl-4-(2-hydroxy-2-methylpropanoyl)piperazin-1-yl)-5-phenyl-7H-pyrrolo[2,3-d]pyrimidin-7-yl)isonicotinonitrile]",500 to 2000 nM,100 to 500 nM
"C[C@@H]1CN(c2nccc3c2c(-c2ccncc2)cn3-c2cccc(F)c2)[C@@H](C)CN1C(=O)C(C)(C)O [Compound 144, 1-((2R,5S)-4-(1-(3-fluorophenyl)-3-(pyridin-4-yl)-1H-pyrrolo[3,2-c]pyridin-4-yl)-2,5-dimethylpiperazin-1-yl)-2-hydroxy-2-methylpropan-1-one]",> 2000 nM,> 2000 nM
"C[C@H]1CN(C(=O)C2(O)CCC2)CCN1c1ncnc2c1c(-c1ccccc1)cn2-c1cc(C#N)ccn1 [Compound 118, (S)-2-(4-(4-(1-hydroxycyclobutane-1-carbonyl)-2-methylpiperazin-1-yl)-5-phenyl-7H-pyrrolo[2,3-d]pyrimidin-7-yl)isonicotinonitrile]",100 to 500 nM,100 to 500 nM
"C[C@@H]1CN(c2ncnc3c2c(-c2ncco2)cn3-c2cc(C#N)ccn2)[C@@H](C)CN1C(=O)C(C)(C)O [Compound 134, 2-(4-((2S,5R)-4-(2-hydroxy-2-methylpropanoyl)-2,5-dimethylpiperazin-1-yl)-5-(oxazol-2-yl)-7H-pyrrolo[2,3-d]pyrimidin-7-yl)isonicotinonitrile]",> 2000 nM,500 to 2000 nM
"C[C@@H]1CN(c2nccc3c2c(-c2ccncc2)cn3-c2cc(F)cc(F)c2)[C@@H](C)CN1C(=O)C(C)(C)O [Compound 143, 1-((2R,5S)-4-(1-(3,5-difluorophenyl)-3-(pyridin-4-yl)-1H-pyrrolo[3,2-c]pyridin-4-yl)-2,5-dimethylpiperazin-1-yl)-2-hydroxy-2-methylpropan-1-one]",,> 2000 nM
CC(C)(O)C(=O)N1CCN(c2ncnc3c2c(-c2ccccc2)cn3-c2cc(C#N)ccn2)[C@@H](C2CC2)C1 [Compound 113],500 to 2000 nM,500 to 2000 nM
"CC(C)[C@H]1CN(C(=O)C(C)(C)O)CCN1c1ncnc2c1c(-c1ccccc1)cn2-c1cc(C#N)ccn1 [Compound 112, (S)-2-(4-(4-(2-hydroxy-2-methylpropanoyl)-2-isopropylpiperazin-1-yl)-5-phenyl-7H-pyrrolo[2,3-d]pyrimidin-7-yl)isonicotinonitrile]",500 to 2000 nM,500 to 2000 nM
"C[C@@H]1CN(c2ncnc3c2c(-c2ccns2)cn3-c2cc(C#N)ccn2)[C@@H](C)CN1C(=O)C(C)(C)O [Compound 153, 2-(4-((2S,5R)-4-(2-hydroxy-2-methylpropanoyl)-2,5-dimethylpiperazin-1-yl)-5-(isothiazol-5-yl)-7H-pyrrolo[2,3-d]pyrimidin-7-yl)isonicotinonitrile]",500 to 2000 nM,500 to 2000 nM
"C[C@@H]1CN(c2ncnc3c2c(-c2nncs2)cn3-c2cc(C#N)ccn2)[C@@H](C)CN1C(=O)C(C)(C)O [Compound 155, 2-(4-((2S,5R)-4-(2-hydroxy-2-methylpropanoyl)-2,5-dimethylpiperazin-1-yl)-5-(1,3,4-thiadiazol-2-yl)-7H-pyrrolo[2,3-d]pyrimidin-7-yl)isonicotinonitrile]",,> 2000 nM

# — patent publication US20260285866A1, “MODULATORS OF TRPML, THEIR COMPOSITIONS AND METHODS OF USE” (Caraway Therapeutics, Inc., priority 2024, published 2026)
